Assays:
LOLRI [1] = assay: Pre-emergence action against LOLRI, 1280 g/ha; type: in vivo, Lolium rigidum; conditions: visual scoring after about 3 weeks vs untreated controls, 100% = plants have died, 0% = like control plants
Procedure, shortened: (§1)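 Mono- and dicot weed seeds sown in sandy loam were treated on the covering soil surface with WP or EC formulations plus 0.5% additive at 600 L water/ha. Pots stayed in a greenhouse; damage was scored visually after ~3 weeks as percent versus untreated controls (100% = dead).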

ECHGC = assay: Pre-emergence action at 320 g/ha against ECHGC; type: in vivo, Echinochloa crus-galli; conditions: visual scoring after about 3 weeks vs untreated controls
Procedure, shortened: (§2)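 Greenhouse pot trial in which formulated compound (wettable powder or emulsion concentrate) goes onto the soil surface right after sowing, at a spray volume of 600 l/ha including 0.5% additive. Effects are judged visually after about 3 weeks (0% = like control, 100% = dead).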

KCHSC [2] = assay: Pre-emergence action against KCHSC, 1280 g/ha; type: in vivo, Bassia scoparia; conditions: scored visually after about 3 weeks vs untreated controls (100% = plants have died)
Procedure, shortened: as §1

ABUTH [3] = assay: Post-emergence action at 320 g/ha against ABUTH; type: in vivo, Abutilon theophrasti; conditions: visual rating about 3 weeks after treatment vs untreated controls
Procedure, shortened: (§3)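 Greenhouse pot plants in sandy loam received a foliar spray of WP- or EC-formulated compound at the one-leaf stage. Percent activity against untreated controls was assessed visually around three weeks later.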

PHBPU = assay: Pre-emergence action at 320 g/ha against PHBPU; type: in vivo; conditions: visual scoring after about 3 weeks vs untreated controls
Procedure, shortened: as §2

LOLRI [4] = assay: Pre-emergence action at 320 g/ha against LOLRI; type: in vivo, Lolium rigidum; conditions: visual scoring after about 3 weeks vs untreated controls
Procedure, shortened: as §2

SETVI = assay: Post-emergence action at 320 g/ha against SETVI; type: in vivo, Setaria viridis; conditions: visual rating about 3 weeks after treatment vs untreated controls
Procedure, shortened: as §3

VERPE = assay: Pre-emergence action against VERPE, 1280 g/ha; type: in vivo, Veronica persica; conditions: scored visually after about 3 weeks vs untreated controls (100% = plants have died)
Procedure, shortened: as §1

AVEFA = assay: Post-emergence action at 320 g/ha against AVEFA; type: in vivo; conditions: visual rating about 3 weeks after treatment vs untreated controls
Procedure, shortened: as §3

ABUTH [5] = assay: Pre-emergence action at 320 g/ha against ABUTH; type: in vivo, Abutilon theophrasti; conditions: greenhouse, scored visually after about 3 weeks vs untreated controls, 100% = plants have died, 0% = like control plants
Procedure, shortened: as §2

STEME = assay: Post-emergence action against STEME, 1.28 kg/ha; type: in vivo, Stellaria media; conditions: dosage 1280 g/ha, visual rating about 3 weeks after treatment vs untreated controls (100% = plants died)
Procedure, shortened: (§4)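 Activity scored visually roughly 3 weeks after treatment against untreated plants (0% = as control, 100% = dead). Plants grown in sandy loam in greenhouse, treated at one-leaf stage, 2–3 weeks post-sowing, with WP/EC spray containing 0.5% additive at 600 l/ha.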

ALOMY = assay: Post-emergence action against ALOMY, 1.28 kg/ha; type: in vivo, Alopecurus myosuroides; conditions: dosage 1280 g/ha, visual rating about 3 weeks after treatment vs untreated controls
Procedure, shortened: as §4

KCHSC [6] = assay: Post-emergence action against KCHSC, 1.28 kg/ha; type: in vivo, Bassia scoparia; conditions: dosage 1280 g/ha, visual rating about 3 weeks after treatment vs untreated controls (100% = plants died)
Procedure, shortened: as §4

ECHCG = assay: Post-emergence action against ECHCG, 1.28 kg/ha; type: in vivo, Echinochloa crus-galli; conditions: dosage 1280 g/ha, visual rating about 3 weeks after treatment vs untreated controls
Procedure, shortened: as §4

ABUTH [7] = assay: Post-emergence action against ABUTH, 1.28 kg/ha; type: in vivo, Abutilon theophrasti; conditions: dosage 1280 g/ha, visual rating about 3 weeks after treatment vs untreated controls (100% = plants died)
Procedure, shortened: as §4

SMILES | Pre-emergence action against LOLRI (LOLRI [1]) [%] | Pre-emergence action against ECHGC in % (ECHGC) [%] | Pre-emergence action against KCHSC (KCHSC [2]) [%] | Post-emergence action against ABUTH in % (ABUTH [3]) [%] | Pre-emergence action against PHBPU in % (PHBPU) [%] | Pre-emergence action against LOLRI in % (LOLRI [4]) [%] | Post-emergence action against SETVI in % (SETVI) [%] | Pre-emergence action against VERPE (VERPE) [%] | Post-emergence action against AVEFA in % (AVEFA) [%] | Pre-emergence action at 320 g/ha against ABUTH in % (ABUTH [5]) [%] | Post-emergence action against STEME (STEME) [%] | Post-emergence action against ALOMY (ALOMY) [%] | Post-emergence action against KCHSC (KCHSC [6]) [%] | Post-emergence action against ECHCG (ECHCG) [%] | Post-emergence action against ABUTH (ABUTH [7]) [%] | pest or weed control at 1280 g/ha (LOLRI [1]; Lolium rigidum, 504 h) [%] | pest or weed control at 320 g/ha (LOLRI [4]; Lolium rigidum, 504 h) [%] | pest or weed control at 1280 g/ha (VERPE; Veronica persica, 504 h) [%] | pest or weed control at 320 g/ha (AVEFA; Avena fatua, 504 h) [%] | pest or weed control at 1280 g/ha (ECHCG; Echinochloa crus-galli, 504 h) [%]
C[C@@H](Oc1nn(-c2ccccc2F)c(-c2cncnc2)c1Br)C(=O)O [VI-012] | 100 | 80 | 100 | 80 | 90 | 90 | 90 | 100 | 90 | 80 | 90 | 100 | 90 | 100 |  |  |  |  |  | 
CCOC(=O)COc1nn(-c2ccccc2F)c(-c2cncc(F)c2)c1Br [VII-015] | 100 | 90 |  | 90 | 90 | 90 | 100 | 100 | 90 | 80 | 100 | 100 |  | 100 | 90 |  |  |  |  | 
COC(=O)[C@@H](C)Oc1nn(-c2ccccc2F)c(-c2cncnc2)c1Br [VI-011, Methyl (2R)-2-{[4-bromo-1-(2-fluorophenyl)-5-(pyrimidin-5-yl)-1H-pyrazol-3-yl]oxy}propanoate] |  | 80 | 100 | 90 | 90 |  | 90 |  |  | 80 | 100 | 100 | 90 |  |  | 100 | 100 | 100 | 90 | 100
COC(=O)COc1nn(-c2ccccc2F)c(-c2ccc(F)nc2)c1C(F)(F)F [VII-031] | 100 | 90 |  | 90 | 80 | 100 | 90 | 100 | 90 |  | 100 | 100 |  | 100 | 90 |  |  |  |  | 
COC(=O)[C@@H](C)Oc1nn(-c2ccccc2)c(-c2cncnc2)c1Br [VI-013] | 100 | 90 | 100 | 80 |  | 90 | 90 | 100 | 80 | 80 | 100 | 100 | 100 | 100 | 90 |  |  |  |  | 
COC(=O)CNC(=O)COc1nn(-c2ccccc2F)c(-c2ccc(F)nc2)c1Br [Example X-002] | 100 | 100 |  | 90 | 80 | 100 | 90 | 100 | 100 |  | 90 | 90 |  | 90 | 90 |  |  |  |  | 
COC(=O)[C@@H](C)Oc1nn(-c2cc(F)ccc2F)c(-c2cncc(F)c2)c1Br [VII-132] | 100 | 90 | 100 |  |  | 100 |  | 100 | 80 | 90 |  | 100 | 100 | 100 | 90 |  |  |  |  | 
O=C(O)COc1nn(-c2ccccc2F)c(-c2cncc(F)c2)c1Br [VII-025] | 100 | 100 | 90 | 90 | 90 | 90 | 100 | 100 | 90 |  | 100 | 100 |  | 100 | 90 |  |  |  |  | 
COC(=O)COc1nn(-c2ccccc2F)c(-c2cncc(F)c2)c1Br [VII-035] | 100 | 90 | 90 | 90 | 90 | 90 | 90 | 100 | 90 | 90 | 100 | 100 |  | 100 | 90 |  |  |  |  | 

Reference: patent US12180187B2, “1-phenyl-5-azinylpyrazolyl-3-oxyalkyl acids and their use for controlling unwanted plant growth” (BAYER AKTIENGESELLSCHAFT, priority 2019, dated 2024)
